Read-outs that look alike come from different tables or passages of the source.
How the values were obtained:
[1] = system: cynomolgus monkeys with sustained elevated IOP; test: IOP lowering in conscious monkeys, eyes made hypertensive by argon laser photocoagulation; type: in vivo, cynomolgus monkey; conditions: Macaca fascicularis, topical, single 50 μl eye drop, up to 6 hours, read-out: Maximum % Decrease From Pretreatment Levels Hypertensive Eye (IOP); for inhibition in vivo at 0.1 %: ocular dose 0.1%; for inhibition in vivo at 0.3 %: ocular dose 0.3%; for inhibition in vivo at 1 %: ocular dose 1%
Source text: Measurements of IOP were made in fully conscious female cynomolgus monkeys weighing 3-4 kg with sustained elevated IOP that was produced in the right eye by argon laser photocoagulation of the trabecular meshwork. Animals were usable for experiments 2 months following surgery. During the experiments, monkeys sat in specially designed chairs (Primate Products, San Francisco), and were fed orange juice and fruit as needed. A 30R model Digilab pneumatonometer (Alcon, Tex.) was used to measure IOP.
Twenty five μl of an anesthetic (proparacaine) was topically applied to each monkey before IOP measurements to minimize ocular discomfort due to tonometry. Two baseline measurements were made prior to instillation of the drugs, followed by periodic measurements up to 6 hours post-instillation. The test compounds were administered unilaterally as a single 50 μl eye drop; the contralateral eyes received an equal volume of saline.

[2] = system: conscious cynomolgus monkeys; test: Cardiovascular side effects (blood pressure, heart rate) after i.v. administration; type: in vivo, cynomolgus monkey; conditions: up to 6 hours, + with * = increase from base levels
Source text: Cardiovascular measurements were made in a different group of monkeys using a BP 100S automated sphygmomanometer (Nippon Colin,. Japan).

[3] = system: conscious cynomolgus monkeys; test: Sedation score during the IOP experiments; type: in vivo, cynomolgus monkey; set-up: key to Sedation (0-4): 0=alert, typical vocalization, movement, etc.; 1=calm, less movement; 2=slightly sedated, some vocalization, responsive to stimulation; 3=sedated, no vocalization, some response to stimulation; 4=asleep
Method: At the same time, sedation was measured and assessed according to the following score: 0=alert, typical vocalization, movement, etc.; 1=calm, less movement; 2=slightly sedated, some vocalization, responsive to stimulation; 3=sedated, no vocalization, some response to stimulation; 4=asleep.

[4] = target: T1, rat α2B (RNG gene) receptor (Rattus norvegicus, UniProt P19328); test: RSAT (Receptor Selection and Amplification Technology) assay, alpha 2B; type: cell-based; conditions: ratio of maximal effect to that of standard full agonist oxymetazoline
T1 construct: expressed in transfected cells; host or cells: NIH-3T3 cells, calcium phosphate cotransfection
T1 sequence (P19328 1-453): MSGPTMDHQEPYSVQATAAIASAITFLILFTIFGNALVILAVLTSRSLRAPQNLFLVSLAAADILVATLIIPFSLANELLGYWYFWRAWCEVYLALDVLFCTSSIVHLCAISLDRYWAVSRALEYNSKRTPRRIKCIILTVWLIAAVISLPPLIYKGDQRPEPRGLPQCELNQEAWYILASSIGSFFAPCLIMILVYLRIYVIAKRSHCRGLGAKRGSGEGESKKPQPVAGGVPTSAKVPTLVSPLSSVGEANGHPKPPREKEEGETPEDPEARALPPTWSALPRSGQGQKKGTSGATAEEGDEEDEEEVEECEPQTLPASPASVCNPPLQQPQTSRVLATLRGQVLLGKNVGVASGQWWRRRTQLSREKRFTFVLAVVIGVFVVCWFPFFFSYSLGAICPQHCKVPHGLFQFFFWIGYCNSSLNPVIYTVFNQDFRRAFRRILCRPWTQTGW
Source text: This preferential activity can be determined in a variety of functional assays such as Cyclic AMP Production, Shimizu et al, J. Neurochem. […] In the study below, the RSAT assay on cells that have been transiently transfected with the human α2A (c10 gene), rat α2B (RNG gene) and human α2C (c4 gene) receptors was used.
The assay measures a receptor-mediated loss of contact inhibition that results in selective proliferation of receptor-containing cells in a mixed population of confluent cells. The increase in cell number is assessed with an appropriate transfected marker gene such as b-galactosidase, the activity of which can be easily measured in a 96-well format. Receptors that activate the G protein, Gq, elicit this response. Alpha2 receptors, which normally couple to Gi, activate the RSAT response when coexpressed with a hybrid Gq protein that has a Gi receptor recognition domain, called Gq/i5^2.
NIH-3T3 cells are plated at a density of 2×10^6 cells in 15 cm dishes and maintained in Dulbecco's modified Eagle's medium supplemented with 10% calf serum. One day later, cells are cotransfected by calcium phosphate precipitation with mammalian expression plasmids encoding p-SV-b-galactosidase (5-10 mg), receptor (1-2 mg) and G protein (1-2 mg). 40 mg salmon sperm DNA may also be included in the transfection mixture. Fresh media is added on the following day and 1-2 days later, cells are harvested and frozen in 50 assay aliquots. Cells are thawed and 100 ml added to […] aliquots of various concentrations of drugs in triplicate in 96-well dishes. Incubations continue 72-96 hr at 37°. After washing with phosphate-buffered saline, b-galactosidase enzyme activity is determined by adding 200 ml of the chromogenic substrate (consisting of 3.5 mM o-nitrophenyl-b-D-galactopyranoside and 0.5% nonidet P-40 in phosphate buffered saline), incubating overnight at 30° and measuring optical density at 420 nm. The absorbence is a measure of enzyme activity, which depends on cell number and reflects a receptor-mediated cell proliferation. The EC50 and maximal effect of each drug at each alpha2 receptor is determined. The efficacy or intrinsic activity is calculated as a ratio of the maximal effect of the drug to the maximal effect of a standard full agonist for each receptor subtype.

SMILES | Maximum % Decrease From Pretreatment Levels, Heart Rate ([2]; i.v. 500 μg/kg) | Maximum % Decrease From Pretreatment Levels, Mean Arterial Blood Pressure ([2]; i.v. 500 μg/kg) | Sedation (0-4) ([3]; ocular dose 0.3%) | Sedation (0-4) ([3]; ocular dose 1%) | Intrinsic Activity Relative to Oxymetazoline, Alpha 2B [4] | inhibition in vivo at 0.3 % [1] [%] | inhibition in vivo at 1 % [1] [%] | further results
c1ccc2c(c1)CC(Cc1c[nH]cn1)CO2 (stereo not shown) [Example B-2d, 4(5)-chroman-3-ylmethyl-1H-imidazole] | +15.5 ± 3.4* % | +8.9 ± 3.4* % | 0 | 0 | 0.6 | – | – | inhibition in vivo at 0.1 % ([1]; 6 h): 22 ± 4.6%; inhibition in vivo at 0.3 % ([1]; 6 h): 17 ± 4.2%; inhibition in vivo at 1 % ([1]; 6 h): 18.1 ± 5.2%; Sedation (0-4) ([3]; ocular dose 0.1%): 0
c1ccc2c(c1)CCC(Cc1c[nH]cn1)C2 (stereo not shown) [Example B-3b, 4(5)-(1,2,3,4-tetrahydronaphthalen-2-ylmethyl)-1H-imidazole] | – | – | 0 | – | 0.7 | – | – | inhibition in vivo at 0.1 % ([1]; 6 h): 25.9 ± 3.5%; inhibition in vivo at 0.3 % ([1]; 6 h): 31.2 ± 4.3%; Maximum % Decrease From Pretreatment Levels, Heart Rate ([2]; i.v. 50 μg/kg): 10.0 ± 2.8%; Maximum % Decrease From Pretreatment Levels, Mean Arterial Blood Pressure ([2]; i.v. 50 μg/kg): 2.4 ± 4.3%; Sedation (0-4) ([3]; ocular dose 0.1%): 0
Cl.c1ccc2c(c1)CC(Cc1c[nH]cn1)CS2 (stereo not shown) [Example B-6, 4(5)-thiochrom-3-ylmethyl-1H-imidazole, hydrogen chloride salt] | – | – | 0 | 0 | 0.35 | – | – | inhibition in vivo at 0.3 % ([1]; 6 h): 13.8 ± 2.4%; inhibition in vivo at 1 % ([1]; 6 h): 22.1 ± 6.3%
c1nc(CC2CCc3sccc3C2)c[nH]1 (stereo not shown) [Example B-9a, 4(5)-(4,5,6,7-tetrahydrobenzo[b]thiophen-5-ylmethyl)-1H-imidazole] | +23.8 ± 4.4* % | +10.8 ± 3.2* % | 0 | 0 | 0.46 | 24.8 ± 3.3 | 26.8 ± 5.4 | inhibition in vivo at 0.03 % ([1]; ocular dose 0.03%): 17.6 ± 1.7%; inhibition in vivo at 0.1 % [1]: 26.7 ± 6.1%; Sedation (0-4) ([3]; ocular dose 0.03%): 0; Sedation (0-4) ([3]; ocular dose 0.1%): 0
c1nc(Cc2ccsc2)c[nH]1 [Example C-1, 4(5)-thiophen-3-ylmethyl-1H-imidazole] | +11 ± 9* % | +5 ± 8* % | – | 0 | 0.83 | – | 25 ± 4 | inhibition in vivo at 3 % ([1]; ocular dose 3%): 29 ± 4%; Maximum % Decrease From Pretreatment Levels, Heart Rate ([2]; i.v. 50 μg/kg): 12 ± 4%; Maximum % Decrease From Pretreatment Levels, Mean Arterial Blood Pressure ([2]; i.v. 50 μg/kg): 12.8 ± 12%; Sedation (0-4) ([3]; ocular dose 3%): 0
c1csc(Cc2c[nH]cn2)c1 [Example C-2, 4(5)-thiophen-2-ylmethyl-1H-imidazole] | 6.5 ± 2.9% | 6.6 ± 1.7% | – | 0 | 1.3 | – | 29.6 ± 5.5 | –
Cc1ccc(Cc2c[nH]cn2)s1 [Example C-3, 4(5)-(5-methylthiophen-2-ylmethyl)-1H-imidazole] | 10.6 ± 3.4% | 2.3 ± 2.7% | 0 | 0 | 0.88 | 20.6 ± 4.8 | 25 ± 6.4 | –
Clc1ccc(Cc2c[nH]cn2)s1 [Example C-4, 4(5)-(5-chlorothiophen-2-ylmethyl)-1H-imidazole] | 10.9 ± 3.6% | 5.3 ± 2.9% | 0 | 0 | 0.82 | 17.7 ± 4 | 29.3 ± 4.9 | –
Cc1ccc(Cc2c[nH]cn2)o1 [Example C-7, 4(5)-(5-methylfuran-2-ylmethyl)-1H-imidazole] | 6.1 ± 3.7% | 3.0 ± 3.9% | – | 0 | 0.73 | – | – | inhibition in vivo at 1 % ([1]; 6 h): 32.3 ± 5.7%
c1ccc(Cc2c[nH]cn2)cc1 [Example C-8, 4(5)-benzyl-1H-imidazole] | 16.6 ± 1.9% | 5.5 ± 2.7% | – | 0 | 0.9 | – | 31.2 ± 3.3 | –
c1ccc2sc(Cc3c[nH]cn3)cc2c1 [Example C-9, 4(5)-benzo[b]thiophen-2-ylmethyl-1H-imidazole] | 5.9 ± 3.3% | 6.0 ± 2.2% | 0 | 0 | 0.88 | 13.7 ± 4.5 | 25.1 ± 4.9 | Maximum % Decrease From Pretreatment Levels, Heart Rate ([2]; i.v. 3.0 μg/kg): 9.4 ± 3.0%; Maximum % Decrease From Pretreatment Levels, Mean Arterial Blood Pressure ([2]; i.v. 3.0 μg/kg): 5.0 ± 2.3%; Maximum % Decrease From Pretreatment Levels, Heart Rate ([2]; i.v. 17 μg/kg): +9.4 ± 1.8* %; Maximum % Decrease From Pretreatment Levels, Mean Arterial Blood Pressure ([2]; i.v. 17 μg/kg): 1.0 ± 4.1%; Maximum % Decrease From Pretreatment Levels, Heart Rate ([2]; i.v. 50 μg/kg): 16 ± 3.2%; Maximum % Decrease From Pretreatment Levels, Mean Arterial Blood Pressure ([2]; i.v. 50 μg/kg): 0.1 ± 3.8%
c1ccc(C2C3CCC(C3)C2/N=C2/NCCO2)cc1 [Example D-1, oxazolidin-2-ylidene-(3-phenylbicyclo[2.2.1]hept-2-yl) amine] | – | – | – | 0 | 0.47 | – | 25.6 ± 3.9 | –
c1ccc2c(c1)CC[C@@H](Cc1c[nH]cn1)C2 [Example J-3, (R)-4(5)-(1,2,3,4-tetrahydronaphthalen-2-ylmethyl)-1H-imidazole] | +10.6 ± 6.0* % | +1.0 ± 2.1* % | 0 | – | 1 | – | – | Sedation (0-4) ([3]; ocular dose 0.03%): 0
